Assay results from publication PMC10497752, “Heparins are potent inhibitors of ectonucleotide pyrophosphatase/phospho-diesterase-1 (NPP1) – a promising target for the immunotherapy of cancer” (Frontiers in Immunology, 2023).

Key:
human CD4+ T cells = assay: Induced Treg differentiation assay; assay type: cell-based; details: U87 cells preincubated with 20 µM ATP plus heparin; supernatant added to CD4+ T cells, day 5 flow cytometry
Procedure: Human CD4^+ T cells were extracted from buffy coats by positive selection using the StraightFrom™ Buffy Coat CD4 MicroBead Kit (Miltenyi Biotec, Bergisch Gladbach, Germany). CD4^+ T cells were stimulated by ImmunoCult™ Human CD3/CD28/CD2 T Cell Activator at day 1. At days 1 and 3, the indicated compounds or U87 cell supernatant, either of untreated or of heparin-treated cells were added to CD4^+ T cells. Cells were harvested at day 5 and were investigated for CD25 and FoxP3 expression. Therefore, cells were washed once with staining buffer (1% BSA, 0.01% NaN3 in PBS). To avoid nonspecific binding, cells were blocked for 15 min with 3% BSA in PBS. Anti-CD25 antibody (PerCP/Cyanine5.5 anti-human CD25 antibody, RRID : AB_2125478, BioLegend Inc, San Diego, CA, USA) was added and the cells were incubated for 30 min in the dark. Subsequently, cells were washed once with staining buffer and fixed in 150 µL of fixation buffer (3% paraformaldehyde (PFA), 0.1% saponin, and 0.5% Tween-20 in Dulbecco's phosphate-buffered saline) for 30 min at 4°C. […] Samples were measured in triplicates using the Guava® easyCyte HT Flow Cytometer (Merck Millipore, Billerica, MA, USA). Compensation and FMO (fluorescence minus one) controls were conducted. […] Data were evaluated using the FlowJo™ v10.5.3 Software (RRID : SCR_008520, BD Life Sciences, Franklin Lakes, NJ, USA) and Graphpad PRISM 8.4.0.

human NTPDase3 = target: T1, human NTPDase3 (Homo sapiens, UniProt O75355); assay: NTPDase CE-based assay, NTPDase3; assay type: biochemical; details: 20 µg/mL (12 µM)
T1 construct: made in house; host or cells: COS-7 cells
T1 sequence (O75355 1-529): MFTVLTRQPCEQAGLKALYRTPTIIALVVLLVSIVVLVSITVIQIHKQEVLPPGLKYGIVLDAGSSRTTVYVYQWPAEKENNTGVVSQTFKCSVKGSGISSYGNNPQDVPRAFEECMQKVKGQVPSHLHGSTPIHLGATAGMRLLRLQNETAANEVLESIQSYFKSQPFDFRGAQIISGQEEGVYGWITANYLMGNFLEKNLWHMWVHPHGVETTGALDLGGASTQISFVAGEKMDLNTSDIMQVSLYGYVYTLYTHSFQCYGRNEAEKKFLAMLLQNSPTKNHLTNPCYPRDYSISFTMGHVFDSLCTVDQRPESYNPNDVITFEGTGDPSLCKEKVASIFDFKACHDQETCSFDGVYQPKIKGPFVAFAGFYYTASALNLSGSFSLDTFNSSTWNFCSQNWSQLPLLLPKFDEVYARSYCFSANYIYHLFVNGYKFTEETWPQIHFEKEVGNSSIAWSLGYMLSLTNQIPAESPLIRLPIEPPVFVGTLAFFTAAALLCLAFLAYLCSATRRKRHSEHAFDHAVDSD
Procedure: For monitoring the activity of human NTPDases (subtypes 1, 2, 3 and 8) in the presence of test compounds, a CE-based assay system was used, according to a published procedure ([11], [25]). The following concentrations of test compounds were investigated in initial screening studies: 63 IU/mL of compounds 1 and 2, 30 µM of compound 6. For selectivity studies, the following concentration were employed: 50 IU/mL of 1, 12 µM of 6, and 48 µM of 7. The amount of enzyme was selected according to previously performed enzymatic titration, and adjusted to ensure a 10–20% conversion rate. Enzymes were obtained by transfection of COS-7 cells using plasmids encoding human NTPDase1 (GenBank accession number U87967) ([26]), NTPDase2 (NM_203468) ([27]), a kind gift of Dr. A.F. Knowles (San Diego, CA), NTPDase3 (AF034840) ([28]), a kind gift of Dr. T.L. Kirley (Cincinnati, OH) and human NTPDase8 (AY430414) ([29]) and purified as previously described ([30], [31]). The reaction buffer consisted of 10 mM HEPES, 2 mM CaCl2, and 1 mM MgCl2, pH 7.4. In the CE assay, the selected substrate concentration (ATP) was 100 µM for all studied human NTPDases (-1, -2, -3 and -8). […] The released products were separated by CE and quantified by their UV-absorption at 260 nm with ADP and AMP as external standards, as previously described ([11]); positive and negative controls were included.

NTPDase3 inhibition, selectivity study (human NTPDase3): no effect
Compound: CO[C@H]1O[C@H](COS(=O)(=O)O)[C@@H](O[C@@H]2O[C@@H](C(=O)O)[C@@H](O[C@H]3O[C@H](COS(=O)(=O)O)[C@@H](O[C@@H]4O[C@H](C(=O)O)[C@@H](O[C@H]5O[C@H](COS(=O)(=O)O)[C@@H](O)[C@H](O)[C@H]5NS(=O)(=O)O)[C@H](O)[C@H]4O)[C@H](OS(=O)(=O)O)[C@H]3NS(=O)(=O)O)[C@H](O)[C@H]2OS(=O)(=O)O)[C@H](O)[C@H]1NS(=O)(=O)O [Compound 6, Fondaparinux]
Treg formation (CD25/FoxP3 positive cells) induced by supernatant of ATP-treated U87 cells (human CD4+ T cells): reduced Treg formation even below that of the control cells
